{"source": "paper PMC4770593", "about": "“Efficient microbial production of stylopine using a Pichia pastoris expression system” (Scientific Reports, 2016)", "assay_in_all_cases": "LC-MS of product formed by Pichia cells expressing the enzyme", "type_in_all_cases": "cell-based", "key": {"[1]": {"biological_target": "T1, CYP719A2 (EcCYP719A2), stylopine synthase (Eschscholzia californica, UniProt C3SBS2)", "T1 construct": "codon-optimized synthetic gene in pPIC3.5/pPIC3.5K; expressed in Pichia pastoris GS115; whole cells, endogenous yeast reductase (no plant CPR)", "T1 sequence (C3SBS2 entry or part of it)": "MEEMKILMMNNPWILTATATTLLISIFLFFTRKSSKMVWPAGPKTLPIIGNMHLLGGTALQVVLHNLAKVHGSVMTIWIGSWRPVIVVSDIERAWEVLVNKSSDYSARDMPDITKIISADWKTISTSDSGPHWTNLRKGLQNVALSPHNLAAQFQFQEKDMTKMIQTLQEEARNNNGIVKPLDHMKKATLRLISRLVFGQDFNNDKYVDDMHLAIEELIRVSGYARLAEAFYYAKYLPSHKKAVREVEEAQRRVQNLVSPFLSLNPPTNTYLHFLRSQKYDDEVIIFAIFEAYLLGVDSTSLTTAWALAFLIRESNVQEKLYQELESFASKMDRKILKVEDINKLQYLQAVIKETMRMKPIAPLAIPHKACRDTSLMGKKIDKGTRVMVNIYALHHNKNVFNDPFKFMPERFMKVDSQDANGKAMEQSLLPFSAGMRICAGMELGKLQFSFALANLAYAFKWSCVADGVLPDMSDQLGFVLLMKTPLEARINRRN", "settings": "in vivo reaction, BMMY medium pH 6.0, 30 °C, 24 h; substrate supplied as CYP719A5 reaction product; vector control"}, "[2]": {"biological_target": "T2, BBE (EcBBE), berberine bridge enzyme (Eschscholzia californica, UniProt P30986)", "T2 construct": "gene BBE1; codon-optimized synthetic gene in pPIC3.5/pPIC3.5K; expressed in Pichia pastoris GS115; whole cells", "T2 sequence (P30986 24-538)": "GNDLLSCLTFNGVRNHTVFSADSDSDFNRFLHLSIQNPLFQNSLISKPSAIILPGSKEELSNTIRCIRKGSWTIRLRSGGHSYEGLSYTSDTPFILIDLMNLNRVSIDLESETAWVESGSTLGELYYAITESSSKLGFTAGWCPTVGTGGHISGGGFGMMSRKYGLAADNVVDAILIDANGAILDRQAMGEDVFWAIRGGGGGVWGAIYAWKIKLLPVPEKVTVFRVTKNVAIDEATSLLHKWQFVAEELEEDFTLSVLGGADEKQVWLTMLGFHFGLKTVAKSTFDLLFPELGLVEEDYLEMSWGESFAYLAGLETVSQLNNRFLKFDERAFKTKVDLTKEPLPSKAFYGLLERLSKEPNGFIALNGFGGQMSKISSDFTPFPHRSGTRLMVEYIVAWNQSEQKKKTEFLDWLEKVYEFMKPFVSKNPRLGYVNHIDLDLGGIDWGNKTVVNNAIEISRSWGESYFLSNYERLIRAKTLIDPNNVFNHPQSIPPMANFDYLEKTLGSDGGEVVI", "settings": "in vivo reaction, BMMY medium pH 6.0, 30 °C, 24 h; racemic substrate; vector control"}, "[3]": {"biological_target": "T3, CYP719A5 (EcCYP719A5), cheilanthifoline synthase (Eschscholzia californica, UniProt B5UAQ8)", "T3 construct": "codon-optimized synthetic gene in pPIC3.5/pPIC3.5K; expressed in Pichia pastoris GS115; whole cells, endogenous yeast reductase (no plant CPR)", "T3 sequence (B5UAQ8 whole entry)": "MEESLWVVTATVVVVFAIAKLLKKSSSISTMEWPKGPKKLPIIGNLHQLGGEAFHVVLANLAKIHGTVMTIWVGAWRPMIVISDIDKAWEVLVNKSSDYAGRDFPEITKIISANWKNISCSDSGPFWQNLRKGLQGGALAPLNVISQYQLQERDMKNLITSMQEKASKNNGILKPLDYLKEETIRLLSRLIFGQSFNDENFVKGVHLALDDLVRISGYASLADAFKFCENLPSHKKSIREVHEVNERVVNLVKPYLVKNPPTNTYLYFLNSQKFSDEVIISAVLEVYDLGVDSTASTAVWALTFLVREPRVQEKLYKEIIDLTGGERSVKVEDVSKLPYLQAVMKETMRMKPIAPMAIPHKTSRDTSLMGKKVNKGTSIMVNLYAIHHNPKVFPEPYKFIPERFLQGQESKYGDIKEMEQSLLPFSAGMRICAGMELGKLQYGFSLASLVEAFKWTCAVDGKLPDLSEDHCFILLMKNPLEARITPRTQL", "settings": "in vivo reaction, BMMY medium pH 6.0, 30 °C, 24 h; vector control"}}, "data": [{"smiles": "COc1cc2c(cc1O)[C@@H]1Cc3ccc4c(c3CN1CC2)OCO4", "note": "[cheilanthifoline]", "values": [{"measurement": "LC-MS of product formed by Pichia cells expressing the enzyme", "setting": "[1]", "result": "CYP719A5 reaction product (chielanthifoline) for CYP719A2 reaction"}]}, {"smiles": "COc1ccc(CC2c3cc(O)c(OC)cc3CCN2C)cc1O", "note": "(racemic) [(R, S)-reticuline]", "values": [{"measurement": "LC-MS of product formed by Pichia cells expressing the enzyme", "setting": "[2]", "result": "reaction products of BBE and CYP719A5 (i.e., scoulerine from reticuline and cheilanthifoline from scoulerine)"}]}, {"smiles": "COc1cc2c(cc1O)[C@@H]1Cc3ccc(OC)c(O)c3CN1CC2", "note": "[(S)-scoulerine]", "values": [{"measurement": "LC-MS of product formed by Pichia cells expressing the enzyme", "setting": "[3]", "result": "The formation of cheilanthifoline by CYP719A5 from scoulerine was confirmed by the production of stylopine"}]}]}
